Earlier results, collected in US8454993B2, “Controlled release pharmaceutical compositions of pregabalin” (Lupin Limited, priority 2007, dated 2013).

Details: in water and both basic and acidic aqueous solutions

**Q.** Which solubility does the source give for `CC(C)C[C@H](CN)CC(=O)O` [Pregabalin, (S)-(+)-3-(aminomethyl)-5-methylhexanoic acid] here?
**A.** freely soluble
